Source: patent US20090181010A1, “Arginase II: a target for the prevention of atherosclerosis” (The Johns Hopkins University, priority 2006, published 2009)
Numbered stars: 1 amine (or outer) side, 2 acyl side, 3 side chain; on linkers, the order of the positions; unused ones are H or OH. Bridge positions count the residues as written; N and C are the ends. Square brackets hold non-standard residues; d marks the D form. Peptide text beside a SMILES is read from it. I, II: the chains in the order shown. Actinocin(9to1) = Cc1c2oc3c(C)ccc(C(=O)[*:1])c3nc-2c(C(=O)[*:2])c(N)c1=O; NMeV = CN[C@H](C(=O)O)C(C)C; Sar = CNCC(=O)O

How the values were obtained:
NO production [1] = assay: NO measurement (NOx, Griess reaction) in HAECs; format: cell-based, human
Description: (§1) Human aortic endothelial cells (HAECs) were purchased from Cascade Biologics (Portland, Oreg.) and maintained in Medium M200 containing low serum growth supplement according to the supplier's protocol. Confluent HAECs were incubated with starvation medium (M200 plus only 0.5% fetal bovine serum) for 24 hr prior to the experimental protocols.
(§2) NO was estimated as nitrate/nitrite (NOx) by Griess reaction after conversion of nitrate to nitrite by nitrate reductase, using the Nitric Oxide Assay Kit (Calbiochem). The concentration of NOx from cell lysates was expressed as nmol/mg proteins.

arginase [2] = assay: Arginase activity in rat aortic rings; conditions: rat aortic rings E+, preincubation with BEC
Description: (§3) Cell lysates were prepared with lysis buffer (50 mM Tris-HCl, pH7.5, 0.1 mM EDTA and protease inhibitors) by brief vigorous vortexing for 30 min and incubation and centrifuging for 20 min at 14,000 g at 4° C. The supernatants are used for arginase activity as described previously^18. Arginase activity from aortic vessels was assayed as described above following homogenization in lysis buffer.

NO production [3] = assay: NO production in rat aortic rings; conditions: rat aortic rings E+, pre-incubation with BEC
Description: FIGS. 7A-B depict arginase dependent endothelial dysfunction in OxLDL treated rat aorta. Arginase inhibition restores endothelial function and increases NO production in rat aortic rings. […] The increase in arginase activity was blocked by preincubation with BEC ([…], *p=0.0007, **p<0.0001 vs. untreated control; #p=0.0003 vs. OxLDL; n=5).
as §2

Apo E knockout mice = assay: Aortic pulse wave velocity (vascular stiffness) in Apo E knockout mice; format: in vivo; conditions: Apo E KO mice, HC diet
Description: (§4) FIGS. 8A-B Arginase inhibition decreases vascular stiffness and restores endothelial function in Apo E knockout mice. 16 WT mice were randomized to receive a normal or high cholesterol (HC) diet. […] Aortic Pulse wave velocity (PWV) (measured by 20 MHz pulsed Doppler from arch to abdominal aorta (4 cm) was used to measure vascular stiffness before and after pump implanatation.

arginase [4] = assay: Aortic arginase activity in Apo E knockout mice; format: in vivo; conditions: Apo E KO mice, BEC treated
Description: as §4, §3

NO production [5] = assay: Aortic NO production (griess method) in Apo E knockout mice; format: in vivo; conditions: Apo E KO mice, BEC treated
human arginase II = target: T1, human arginase II (Homo sapiens, UniProt P78540); conditions: cited from earlier work
T1 sequence (P78540 23-354): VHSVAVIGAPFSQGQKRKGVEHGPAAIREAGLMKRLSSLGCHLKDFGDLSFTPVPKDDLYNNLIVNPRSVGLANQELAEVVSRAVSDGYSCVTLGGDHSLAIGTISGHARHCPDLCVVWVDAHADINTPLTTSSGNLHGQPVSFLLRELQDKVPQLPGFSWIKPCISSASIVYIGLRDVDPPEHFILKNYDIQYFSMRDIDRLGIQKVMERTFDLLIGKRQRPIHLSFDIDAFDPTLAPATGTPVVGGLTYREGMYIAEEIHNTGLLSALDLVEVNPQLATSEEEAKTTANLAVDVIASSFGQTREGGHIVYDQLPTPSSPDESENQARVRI

arginase II [6] = assay: Quantitative PCR of arginase II expression in HAECs; format: cell-based, human; conditions: HAEC
Description: Total RNA from Ox-LDL-stimulated HAEC was prepared using Trizol Reagent according to the supplier's protocol (Gibco). To exclude contamination with genomic DNA, total RNA was treated with RNase-free DNase (Roche). PCR reaction was performed in iCycler optical system (Bio-rad) using SYBR green PCR master mix. The reverse transcriptional PCR primers are as follows: Arginase I: Forward 5′-GGC AAG GTG GCA GAA GTC A-3′, Reverse 5′-TGGTTGTCAGTGGAGTGTTG-3′, size of PCR products=163 bp; Arginase II: Forward 5′-CTATCAGCACTGGATCTTGTTG-3′, Reverse 5′-GGGAGTAGGAAGTTGGTCATAG-3′, size of PCR products=156 bp. 18S rRNA gene (Forward 5′-CGGCGACGACCCATTCGAAC-3′, Reverse 5′-GAATCGAACCCTGATTCCCCGTC-3′, size of PCR product=99 bp) was amplified as a control.

arginase II [7] = assay: Western blot of arginase II protein in HAECs; format: cell-based, human; conditions: HAEC, cycloheximide 10 μM co-incubation
Description: Transient transfection of arginase-SiRNA (Santa Cruz Biotechnology) was performed with Oligofectamine reagent according to instructions provided by the supplier (Invitrogen). In brief, 8 μL of Oligofectamine was added to 17 μL Opti-MEM I reduced serum medium (Gibco), incubated for 5 minutes at room temperature, mixed with 180 μL Opti-MEM medium containing different amount of SiRNA, and further incubated for 15 minutes. The SiRNA-Oligofectamine complex was then overlaid on cells (each well of a 6 well culture dish). After incubation for 6 h, endothelial growth medium containing 3 times serum was added for making normal growth medium of 1× serum concentration. Transfected cells were then further incubated for 36 hr and starved for 24 hr prior to experiments and then stimulated with OxLDL for additional 6 hours.
Cells were lysed in SDS sample buffer (62.5 mM Tris, pH6.8, 2% SDS, and 10% Glycerol) and then sonicated for 5 s to reduce sample viscosity. Each sample was resolved by 10% SDS-PAGE, transferred to PVDF membrane (Bio-rad), analysed with antibodies according to the supplier's protocol, and visualized with peroxidase and an enhanced-chemiluminescence system (Pierce). Normalization was performed using the anti-β-tubulin antibody (BD bioscience, 1:1,000). Densitometric analysis of bands was performed with NIH ImageJ program.

arginase [8] = assay: Arginase activity assay in HAEC lysates; format: cell-based, human
Description: as §1, §3

HAECs = assay: Immunofluorescence of arginase II and beta-tubulin in HAECs; format: cell-based, human; conditions: HAEC, nocodazole 50 μM, 30 minutes
Description: HAECs were cultured on coverslips coated with 25 µg/ml human plasma fibronectin (Invitrogen). Cells were then fixed and permeabilized with 3% paraformaldehyde and 0.5% Triton X-100 in PBS for 2 minutes, followed by 20 minutes of 3% paraformaldehyde alone. Samples were prepared for immunofluorescence analysis by incubating with a rabbit polyclonal antisera against arginase II (Santa Cruz Biotechnology, 1:50) and a mouse monoclonal antibody against β-tubulin (BD Biosciences, 1:50) for 30 minutes at 37° C. They were then rinsed in tris-buffered saline and incubated with Cy5-conjugated anti-rabbit IgG and Cy3-conjugated anti-mouse IgG (Chemicon, Temecula, Calif.). Images were acquired using a Nikon TE-200 epifluorescence microscope (with a 60× objective, and collected using Openlab software (Improvision, Lexington, Mass.) and an internally cooled 12-bit CCD camera (CoolsnapHQ, Photometrics, Tucson, Ariz.).

SMILES: N[C@@H](CSCCB(O)O)C(=O)O [BEC, S-(2-boronoethyl)-L-cysteine]
- effect on HAEC NOx production (NO production [1]; BEC alone, no OxLDL): no effect
- prevention of OxLDL-dependent decrease in NO (NO production [1]; HAEC, BEC 10 μmol/L, all time points from 4 hrs): prevents
- NOx production, OxLDL+BEC vs. control (NO production [1]; HAEC, OxLDL 50 μg/ml + BEC 10 μmol/L, 4 hrs): 102%
- NOx production (NO production [1]; HAEC, OxLDL + BEC 10 μmol/L, 4 hrs, control 14.24±0.95): 14.58±0.94 nmol/mg proteins
- OxLDL-induced increase in arginase activity (arginase [2]): blocked
- vascular NO production following OxLDL treatment (NO production [3]): increased vascular NO production
- Aortic pulse wave velocity (PWV) (Apo E knockout mice; BEC group, before pump implantation): 4.9±0.22 m/sec
- Aortic pulse wave velocity (PWV) (Apo E knockout mice; after 4 weeks BEC (1 mg/mice) by osmotic infusion pump): 4.0±0.25 m/sec
- aortic arginase activity (arginase [4]): significant decrease
- aortic NO production (NO production [5]): restoration of NO production to WT
- Ki (human arginase II): 210 nM

SMILES: Cc1c2oc3c(C)ccc(C(=O)N[C@@H]4C(=O)N[C@H](C(C)C)C(=O)N5CCC[C@H]5C(=O)N(C)CC(=O)N(C)[C@@H](C(C)C)C(=O)O[C@@H]4C)c3nc-2c(C(=O)N[C@@H]2C(=O)N[C@H](C(C)C)C(=O)N3CCC[C@H]3C(=O)N(C)CC(=O)N(C)[C@@H](C(C)C)C(=O)O[C@@H]2C)c(N)c1=O [actinomysin D] (I: T[dV]P[Sar][NMeV] / II: T[dV]P[Sar][NMeV]; ester I:1-I:C, II:1-II:C; linker I:N-II:N via Actinocin(9to1))
- arginase II expression (quantitative PCR), relative to control 1.0±0.06 (arginase II [6]; OxLDL 4 hrs + actinomysin D 10 μg/ml): 1.1±0.15
- block of OxLDL-induced arginase II expression (arginase II [6]; actinomysin D 10 μg/ml): completely blocked

SMILES: C[C@@H]1C[C@@H]([C@H](O)CC2CC(=O)NC(=O)C2)C(=O)[C@@H](C)C1 [cycloheximide]
- block of OxLDL-induced arginase II protein increase (arginase II [7]): completely blocked

SMILES: C/C(=C\c1csc(C)n1)[C@@H]1C[C@@H]2O[C@]2(C)CCC[C@H](C)[C@H](O)[C@@H](C)C(=O)C(C)(C)[C@@H](O)CC(=O)O1 [epothilone B]
- arginase activity (arginase [8]; OxLDL + epothilone B 0.1 μmol/L): 73.55±2.82 μmol Urea/mg protein/min
- endothelial NO production (NO production [1]; HAEC, OxLDL + epothilone B 0.1 μmol/L): 8.05±0.47 nmol/mg proteins
- basal endothelial cell NOx (NO production [1]; HAEC, epothilone B alone): small but not statistically significant increase

SMILES: COC(=O)Nc1nc2ccc(C(=O)c3cccs3)cc2[nH]1 [nocodazole]
- arginase activity (arginase [8]; nocodazole 5 μmol/L, control 40.4±7.63): 100.7±11.17 μmol Urea/mg protein/min
- arginase activity (arginase [8]; nocodazole 50 μmol/L, control 40.4±7.63): 134.3±0.28 μmol Urea/mg protein/min
- arginase activity (arginase [8]; nocodazole in combination with Ox-LDL): 141.9±7.07 μmol Urea/mg protein/min
- NOS measurement (NO production [1]; HAEC, nocodazole treatment): reciprocal decrease
- arginase II localization (immunofluorescence) (HAECs): diffuse arginase localization
